US20100173879A1, “USE OF A COMPOUND ANTAGONIST TO THE NK2 RECEPTORS OF NEUROKININ A FOR THE PREPARATION OF DRUGS USEFUL FOR PREVENTING AND TREATING OF SEXUAL DYSFUNCTION” (SANOFI-AVENTIS, priority 2007, published 2010)

Tested on: male or female adult patients, exhibiting a major depressive disorder
Experiment: Eight-week multicentre double-blind clinical studies versus placebo, CSFQ questionnaire (changes in sexual functioning questionnaire)
Assay type: in vivo, human
Settings: 100 mg per day orally for eight weeks
Description: The patients received, orally, a dose of 100 mg per day of saredutant for eight weeks, in the form of gel capsules (Example 2). he effects of saredutant compared with the placebo were evaluated using the CSFQ questionnaire (changes in sexual functioning questionnaire) comprising 14 items according to Clayton A H et al., Psychopharmacol. Bull., 1997, 33, 731-745. It is known that antidepressants have a deleterious effect on the sexual activity of patients (Montejo-Gonzales A L et al.: J. Sex Marital Ther., 1997, 23(3), 176-194). […] The table below indicates, for each group treated, the mean variation relative to the base value before treatment of the total CSFQ score and its variability between parentheses obtained over the analysis of all the studies. An increase in the total CSFQ score corresponds to an improvement in sexual function.

CC(=O)NC1(c2ccccc2)CCN(CC[C@H](CN(C)C(=O)c2ccccc2)c2ccc(Cl)c(Cl)c2)CC1 [Saredutant, (S)-(−)-N-[4-(4-acetamido-4-phenylpiperidin-1-yl)-2-(3,4-dichlorophenyl)butyl]-N-methylbenzamide]
effect on the dysfunctions reduced sexual desire and sexual arousal disorders (versus placebo): beneficial effect | improvement in the total CSFQ score between the last visit (56th day) and the first visit, in comparison with the placebo group (p<0.05): significant improvement | Total CSFQ score, mean variation relative to the base value before treatment (variability between parentheses) (all patients, n = 553, analysis of all the studies, increase = improvement in sexual function, *p < 0.05 versus placebo (ANCOVA)): 2.23 (0.64)*
